Measured values: publication PMC5471521, “Novel selective β1-adrenoceptor antagonists for concomitant cardiovascular and respiratory disease” (The FASEB Journal, 2017)

Columns and labels:
dopamine transporter = dopamine transporter (Homo sapiens, UniProt Q01959); experiment: Cerep radioligand-binding assay
Protocol: (§1) […]; Ki (inhibition constant) was calculated by using the Cheng-Prusoff equation from the mean of duplicate determinations in cell-based receptor radioligand-binding assays. Cerep in vitro pharmacology profiling service was used (see the Supplemental Data for a list of the assays used).

[1] = molecular target: noradrenaline transporter (Homo sapiens, UniProt P23975); experiment: Cerep radioligand-binding assay
Protocol: as §1

CYP2A6 = molecular target: T1, CYP2A6 (Homo sapiens, UniProt P11509); experiment: P450 in vitro clearance, recombinant Supersomes; type: in vitro ADME; conditions: 2 μM, hydrochloride salts used
T1 construct: purchased BD Biosciences
Protocol: (§2) NDD-713.HCl and -825.HCl (2 μM) and cytochrome P450 (P450) reference substrates (see Supplemental Data for full details) were incubated (37°C) with selected recombinant human P450 isoforms (CYP1A2, CYP2A6, CYP2B6, CYP2C8, CYP2C9, CYP2C19, CYP2D6 CYP2E1, and CYP3A4) in heterologously expressed P450 Supersomes (BD Biosciences) that were suspended in […] Tris-HCl buffer (pH 7.4; for CYP2C9) or 100 mM phosphate buffer (pH 7.4; for the other isoforms) at final P450 concentrations of 85 pmol/ml. Reactions were initiated by additions of an NADPH-regenerating system and quenched at time points over 60 min (reference probes) or 120 min (test compounds) by acetonitrile. Quenched samples were centrifuged and supernatants were collected. NDD-713, -825, and probe metabolites were determined by UPLC-MS relative to calibration standards prepared in quenched matrix, and %substrate that remained was calculated relative to the initial sample concentration. The %substrate that remained vs. time was fitted to exponential decay functions to determine the pseudo first-order rate constant (k/min) for substrate depletion. These were normalized to P450 concentrations (pmol/ml) to obtain in vitro CLint values: CLint, in vitro (μl/min/pmol P450) = [k (min^−1)/P450 concentration […]] × 1000. Studies were carried out by CDCO.

CYP2D6 = CYP2D6 (Homo sapiens, UniProt P10635); experiment: P450 in vitro clearance, recombinant Supersomes; type: in vitro ADME; conditions: 2 μM, hydrochloride salts used; one value printed for CYP2D6 and CYP2E1
Protocol: as §2

CYP2E1 = molecular target: T2, CYP2E1 (Homo sapiens, UniProt P05181); experiment: P450 in vitro clearance, recombinant Supersomes; type: in vitro ADME; conditions: 2 μM, hydrochloride salts used; one value printed for CYP2D6 and CYP2E1
T2 construct: purchased BD Biosciences
Protocol: as §2

[2] = Seven-day oral dose range rat toxicity study; type: in vivo
Protocol: Male Crl:CD rats (9 wk old, weighing 316.8–349.4 g on d 1; Charles River) were administered 1 oral dose of NDD-825.HCl in water that contained 0.5% (w/v) hydroxypropylmethylcellulose K15M, 0.5% (v/v) benzyl alcohol, and 0.4% (v/v) Tween-80 at 20, 90, or 300 mg/kg at a dose volume of 10 ml/kg for 7 consecutive days (4 animals per group). Blood samples were collected before and at time points during the 24 h that followed for bioanalysis. Animals were monitored for adverse clinical signs and body weight. Terminal blood samples were taken for clinical chemistry, and organs were harvested for microscopic examination (see Supplemental Data for full details). Three additional male rats per group received NDD-825.HCl on d 1 only to collect blood samples for plasma bioanalysis of compound toxicokinetics. NDD-825 was quantifiable in plasma of all animals up to 8 h after dose administration; […]. Systemic exposure to NDD-825 in terms of Cmax increased in approximate proportion with increasing dose, whereas for the same dose increase, AUC0-t increased in a supraproportional manner across the entire dose range. […]. […] Study was carried out by Aptuit (Verona, Italy).

[3] = concentration-response, Cheng-Prusoff

Chain of noradrenaline transporter (P23975 whole entry): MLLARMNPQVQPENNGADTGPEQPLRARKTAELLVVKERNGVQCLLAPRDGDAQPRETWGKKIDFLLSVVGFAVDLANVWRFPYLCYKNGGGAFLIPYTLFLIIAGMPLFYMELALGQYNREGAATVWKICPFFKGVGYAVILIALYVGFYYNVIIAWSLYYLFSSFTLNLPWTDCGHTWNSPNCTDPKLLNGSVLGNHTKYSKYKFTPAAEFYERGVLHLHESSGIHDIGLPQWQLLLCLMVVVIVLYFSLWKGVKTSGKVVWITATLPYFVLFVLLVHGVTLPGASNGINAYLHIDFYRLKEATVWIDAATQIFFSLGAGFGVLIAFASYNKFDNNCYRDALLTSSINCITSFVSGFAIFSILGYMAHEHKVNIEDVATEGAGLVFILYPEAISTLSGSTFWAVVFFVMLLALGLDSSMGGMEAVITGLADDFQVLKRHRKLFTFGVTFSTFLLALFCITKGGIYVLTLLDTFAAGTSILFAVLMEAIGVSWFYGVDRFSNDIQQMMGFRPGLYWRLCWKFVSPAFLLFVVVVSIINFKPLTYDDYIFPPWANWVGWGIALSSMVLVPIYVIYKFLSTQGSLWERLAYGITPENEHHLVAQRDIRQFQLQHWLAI
Chain of dopamine transporter (Q01959 whole entry): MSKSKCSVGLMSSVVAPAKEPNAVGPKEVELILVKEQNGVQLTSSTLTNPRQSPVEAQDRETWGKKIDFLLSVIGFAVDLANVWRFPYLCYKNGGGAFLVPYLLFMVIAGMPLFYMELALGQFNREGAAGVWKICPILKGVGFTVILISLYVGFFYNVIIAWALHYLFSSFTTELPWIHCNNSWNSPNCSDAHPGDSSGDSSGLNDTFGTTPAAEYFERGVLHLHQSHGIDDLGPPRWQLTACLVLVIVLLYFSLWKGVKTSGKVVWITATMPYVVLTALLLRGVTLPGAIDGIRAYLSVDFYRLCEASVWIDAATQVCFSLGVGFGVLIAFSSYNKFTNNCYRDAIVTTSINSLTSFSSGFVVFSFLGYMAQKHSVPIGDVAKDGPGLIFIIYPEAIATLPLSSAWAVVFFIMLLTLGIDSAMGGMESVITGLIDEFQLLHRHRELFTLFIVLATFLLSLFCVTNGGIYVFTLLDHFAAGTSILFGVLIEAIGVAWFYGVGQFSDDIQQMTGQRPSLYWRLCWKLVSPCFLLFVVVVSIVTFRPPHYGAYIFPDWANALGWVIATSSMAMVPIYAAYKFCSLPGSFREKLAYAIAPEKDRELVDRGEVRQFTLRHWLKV
Chain of CYP2D6 (P10635 whole entry): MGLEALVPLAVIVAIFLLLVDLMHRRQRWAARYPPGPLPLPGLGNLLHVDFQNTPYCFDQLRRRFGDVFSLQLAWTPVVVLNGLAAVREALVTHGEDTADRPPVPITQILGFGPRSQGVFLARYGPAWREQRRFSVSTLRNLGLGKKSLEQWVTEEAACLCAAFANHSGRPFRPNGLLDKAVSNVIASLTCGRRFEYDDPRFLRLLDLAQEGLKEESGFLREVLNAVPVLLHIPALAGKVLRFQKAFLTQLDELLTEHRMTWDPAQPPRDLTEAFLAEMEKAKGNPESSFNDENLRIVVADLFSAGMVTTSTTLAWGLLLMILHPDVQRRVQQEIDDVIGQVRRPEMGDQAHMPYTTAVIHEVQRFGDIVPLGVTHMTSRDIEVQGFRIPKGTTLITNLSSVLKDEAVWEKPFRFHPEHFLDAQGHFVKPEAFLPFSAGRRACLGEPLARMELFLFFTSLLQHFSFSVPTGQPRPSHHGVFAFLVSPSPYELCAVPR
T2 sequence (P05181 whole entry): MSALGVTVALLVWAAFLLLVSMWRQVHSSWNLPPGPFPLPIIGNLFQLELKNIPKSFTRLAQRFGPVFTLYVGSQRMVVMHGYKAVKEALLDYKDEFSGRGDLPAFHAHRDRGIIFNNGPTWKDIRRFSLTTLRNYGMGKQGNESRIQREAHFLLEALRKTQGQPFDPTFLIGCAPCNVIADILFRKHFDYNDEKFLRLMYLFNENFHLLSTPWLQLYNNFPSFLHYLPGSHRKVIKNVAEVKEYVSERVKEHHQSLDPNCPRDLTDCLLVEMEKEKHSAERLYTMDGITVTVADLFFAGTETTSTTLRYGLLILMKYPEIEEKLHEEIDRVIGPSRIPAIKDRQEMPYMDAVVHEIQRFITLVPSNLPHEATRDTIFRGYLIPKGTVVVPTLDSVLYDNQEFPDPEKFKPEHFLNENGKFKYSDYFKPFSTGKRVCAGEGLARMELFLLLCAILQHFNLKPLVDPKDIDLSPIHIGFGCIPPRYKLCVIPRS
T1 sequence (P11509 whole entry): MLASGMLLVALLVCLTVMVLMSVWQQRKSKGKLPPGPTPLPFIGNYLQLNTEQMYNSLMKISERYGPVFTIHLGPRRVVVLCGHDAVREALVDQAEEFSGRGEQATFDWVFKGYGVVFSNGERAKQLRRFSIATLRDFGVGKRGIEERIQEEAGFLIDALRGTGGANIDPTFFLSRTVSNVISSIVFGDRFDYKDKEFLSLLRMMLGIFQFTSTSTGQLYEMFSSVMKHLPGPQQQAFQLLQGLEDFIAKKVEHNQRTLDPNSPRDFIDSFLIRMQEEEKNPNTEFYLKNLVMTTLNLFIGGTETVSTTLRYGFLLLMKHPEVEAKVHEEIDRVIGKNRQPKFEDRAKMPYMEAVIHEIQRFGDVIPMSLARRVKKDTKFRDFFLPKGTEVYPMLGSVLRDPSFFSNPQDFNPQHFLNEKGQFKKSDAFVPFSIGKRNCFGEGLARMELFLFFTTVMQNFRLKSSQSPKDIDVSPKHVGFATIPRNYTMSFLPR

Row | Compound | β1-AR vs. dopamine transporter selectivity (dopamine transporter) | Ki (dopamine transporter; [3]) | β1-AR vs. noradrenaline transporter selectivity [1] | Ki [1, 3] | P450 in vitro clearance CLint, CYP2A6 (CYP2A6) | P450 in vitro clearance CLint, CYP2D6 (CYP2D6) | P450 in vitro clearance CLint, CYP2E1 (CYP2E1) | Tolerability ([2]; 300 mg/kg once daily p.o. for 7 d (highest dose tested)) | Change in triglycerides ([2]; 7-d repeat oral dosing, top dose) | MTD at 7 d ([2]; male, Crl:CD, in vivo, 7-d repeat oral dosing, read-out: Maximum tolerated dose) | Tmax ([2]; male, Crl:CD, plasma, oral 20, 90 or 300 mg/kg, read-out: tmax (toxicokinetics)) | Increase of AUC0-t for a 15-fold increase in dose ([2]; oral, 20 to 300 mg/kg/d) | Increase of Cmax for a 15-fold increase in dose ([2]; oral, 20 to 300 mg/kg/d)
1 | NC(=O)c1ccc(OCCNC[C@H](O)COc2ccc3c(c2)OC[C@@H](COCC2CC2)O3)cc1 [NDD-713] | 53 fold | 800 nM | 185 fold | 2800 nM | 0.02 μl/min/pmol P450 | – | – | – | – | – | – | – | –
2 | O=C1NCc2cc(OCCNC[C@H](O)COc3ccc4c(c3)OC[C@@H](COCC3CC3)O4)ccc21 [NDD-825] | – | – | – | – | – | 0.02 μl/min/pmol P450 | 0.02 μl/min/pmol P450 | well tolerated | dose-related increase in triglycerides | > 300 mg/kg/day | 2 to 8 h | 31.4 fold | 12.4 fold
